In patent US10004701B2, “Methods and compositions for treating infection” (UNIVERSITY OF ROCHESTER, priority 2012, dated 2018):
Structures can show the parent of a compound that is named as a salt. Where two headings read alike, the source gives them in different places.

Key:
Assay in all cases: AK assay 384-well format, Prestwick library screening
[1] = tested on: A. baumannii strain 98-37-09; type: cell-based, Acinetobacter baumannii; details: 50 μM final drug concentration; for fold induction at 50 µM: Acinetobacter baumannii, 983709, 3 h
P. aeruginosa = type: cell-based, Pseudomonas aeruginosa; details: 50 μM final drug concentration; for fold induction at 50 µM: Pseudomonas aeruginosa, 3 h
E. cloacae = type: cell-based, Enterobacter cloacae; details: 50 μM final drug concentration; for fold induction at 50 µM: Enterobacter cloacae, 3 h
E. faecium = type: cell-based, Enterococcus faecium; details: 50 μM final drug concentration; for fold induction at 50 µM: Enterococcus faecium, 3 h
E. coli = type: cell-based, Escherichia coli; details: 50 μM final drug concentration; for fold induction at 50 µM: Escherichia coli, 3 h
[2] = tested on: S. aureus strain USA300-0114; type: cell-based, Staphylococcus aureus; details: 50 μM final drug concentration; for fold induction at 50 µM: Staphylococcus aureus, USA300, 3 h
K. pneumoniae = type: cell-based, Klebsiella pneumoniae; details: 50 μM final drug concentration; for fold induction at 50 µM: Klebsiella pneumoniae, 3 h
[3] = planktonic, cutoff for positive 3-fold increase, read-out: AK-based Prestwick Library Screening Results, A. baumannii (fold increase in extracellular AK activity)
[4] = planktonic, cutoff for positive 3-fold increase, read-out: AK-based Prestwick Library Screening Results, P. aeruginosa (fold increase in extracellular AK activity)
[5] = planktonic, cutoff for positive 3-fold increase, read-out: AK-based Prestwick Library Screening Results, E. cloacae (fold increase in extracellular AK activity)
[6] = planktonic, cutoff for positive 3-fold increase, read-out: AK-based Prestwick Library Screening Results, E. faecium (fold increase in extracellular AK activity)
[7] = planktonic, cutoff for positive 3-fold increase, read-out: AK-based Prestwick Library Screening Results, E. coli (fold increase in extracellular AK activity)
[8] = planktonic, cutoff for positive 3-fold increase, read-out: AK-based Prestwick Library Screening Results, S. aureus (fold increase in extracellular AK activity)
[9] = planktonic, cutoff for positive 3-fold increase, read-out: AK-based Prestwick Library Screening Results, K. pneumoniae (fold increase in extracellular AK activity)
[10] = 384-well format, cutoff for positive-scoring molecules 3-fold increase, read-out: AK-based Prestwick Library Screening Results, A. baumannii (increase in extracellular AK activity)
[11] = 384-well format, cutoff for positive-scoring molecules 3-fold increase, read-out: AK-based Prestwick Library Screening Results, P. aeruginosa (increase in extracellular AK activity)
[12] = 384-well format, cutoff for positive-scoring molecules 3-fold increase, read-out: AK-based Prestwick Library Screening Results, E. cloacae (increase in extracellular AK activity)
[13] = 384-well format, cutoff for positive-scoring molecules 3-fold increase, read-out: AK-based Prestwick Library Screening Results, E. faecium (increase in extracellular AK activity)
[14] = 384-well format, cutoff for positive-scoring molecules 3-fold increase, read-out: AK-based Prestwick Library Screening Results, E. coli (increase in extracellular AK activity)
[15] = 384-well format, cutoff for positive-scoring molecules 3-fold increase, read-out: AK-based Prestwick Library Screening Results, S. aureus (increase in extracellular AK activity)
[16] = 384-well format, cutoff for positive-scoring molecules 3-fold increase, read-out: AK-based Prestwick Library Screening Results, K. pneumoniae (increase in extracellular AK activity)

Question: With `CN1C(C)(C)CCCC1(C)C` [Pempidine tartrate] as the compound, how does the fold induction at 50 µM ([1]; planktonic, […], read-out: AK-based Prestwick Library Screening Results, A. baumannii (fold increase in extracellular AK activity)) read?
Answer: 1.1

Question: What about the fold induction at 50 µM (P. aeruginosa; planktonic, […], read-out: AK-based Prestwick Library Screening Results, P. aeruginosa (fold increase in extracellular AK activity)) of the same compound?
Answer: 1.1

Question: What about the fold induction at 50 µM (E. cloacae; planktonic, […], read-out: AK-based Prestwick Library Screening Results, E. cloacae (fold increase in extracellular AK activity)) of the same compound?
Answer: 1.5

Question: And the fold induction at 50 µM (E. faecium; planktonic, […], read-out: AK-based Prestwick Library Screening Results, E. faecium (fold increase in extracellular AK activity))?
Answer: 1

Question: And the fold induction at 50 µM (E. coli; planktonic, […], read-out: AK-based Prestwick Library Screening Results, E. coli (fold increase in extracellular AK activity))?
Answer: 1.1

Question: What about the fold induction at 50 µM ([2]; planktonic, […], read-out: AK-based Prestwick Library Screening Results, S. aureus (fold increase in extracellular AK activity)) of the same compound?
Answer: 1.1

Question: And the fold induction at 50 µM (K. pneumoniae; planktonic, […], read-out: AK-based Prestwick Library Screening Results, K. pneumoniae (fold increase in extracellular AK activity))?
Answer: 1

Question: Which results are given for `O=C1NCCN1c1ncc([N+](=O)[O-])s1` [Niridazole]?
Answer: fold induction at 50 µM [1, 3]: 1.4; fold induction at 50 µM (P. aeruginosa; [4]): 1.2; fold induction at 50 µM (E. cloacae; [5]): 6.1; fold induction at 50 µM (E. faecium; [6]): 1; fold induction at 50 µM (E. coli; [7]): 13.2; fold induction at 50 µM [2, 8]: 1.8; fold induction at 50 µM (K. pneumoniae; [9]): 6

Question: Which fold induction at 50 µM ([1]; planktonic A. baumannii, 384-well, […], read-out: AK-based Prestwick Library Screening Results: A. baumannii (increase in extracellular AK activity)) does the source give for `C1CCC(C(CC2CCCCN2)C2CCCCC2)CC1` (stereo not drawn) [Perhexiline maleate] here?
Answer: 3.4

Question: And the fold induction at 50 µM (P. aeruginosa; planktonic P. aeruginosa, 384-well, […], read-out: AK-based Prestwick Library Screening Results: P. aeruginosa (increase in extracellular AK activity))?
Answer: 1.4

Question: What about the fold induction at 50 µM (E. cloacae; planktonic E. cloacae, 384-well, […], read-out: AK-based Prestwick Library Screening Results: E. cloacae (increase in extracellular AK activity)) of the same compound?
Answer: 1.5

Question: And the fold induction at 50 µM (E. faecium; planktonic E. faecium, 384-well, […], read-out: AK-based Prestwick Library Screening Results: E. faecium (increase in extracellular AK activity))?
Answer: 1.2

Question: What about the fold induction at 50 µM (E. coli; planktonic E. coli, 384-well, […], read-out: AK-based Prestwick Library Screening Results: E. coli (increase in extracellular AK activity)) of the same compound?
Answer: 1.8

Question: And the fold induction at 50 µM ([2]; planktonic S. aureus, 384-well, […], read-out: AK-based Prestwick Library Screening Results: S. aureus (increase in extracellular AK activity))?
Answer: 0.8

Question: What about the fold induction at 50 µM (K. pneumoniae; planktonic K. pneumoniae, 384-well, […], read-out: AK-based Prestwick Library Screening Results: K. pneumoniae (increase in extracellular AK activity)) of the same compound?
Answer: 1.6

Question: For Pridinol methanesulfonate salt, which “AK-based Prestwick Library Screening Results, A. baumannii (fold increase in extracellular AK activity)” value ([1]; […]) is on record?
Answer: 1.1

Question: And the “AK-based Prestwick Library Screening Results, P. aeruginosa (fold increase in extracellular AK activity)” value (P. aeruginosa; […])?
Answer: 1.1

Question: What about the “AK-based Prestwick Library Screening Results, E. cloacae (fold increase in extracellular AK activity)” value (E. cloacae; […]) of the same compound?
Answer: 1.6

Question: What about the “AK-based Prestwick Library Screening Results, E. faecium (fold increase in extracellular AK activity)” value (E. faecium; […]) of the same compound?
Answer: 1.1

Question: And the “AK-based Prestwick Library Screening Results, E. coli (fold increase in extracellular AK activity)” value (E. coli; […])?
Answer: 1.1

Question: What about the “AK-based Prestwick Library Screening Results, S. aureus (fold increase in extracellular AK activity)” value ([2]; […]) of the same compound?
Answer: 1.2

Question: And the “AK-based Prestwick Library Screening Results, K. pneumoniae (fold increase in extracellular AK activity)” value (K. pneumoniae; […])?
Answer: 0.9

Question: What does the source list for `OCCN(CCO)c1nc(N2CCCCC2)c2nc(N(CCO)CCO)nc(N3CCCCC3)c2n1` [Dipyridamole]?
Answer: fold induction at 50 µM ([1]; planktonic A. baumannii, 384-well, cutoff for positive-scoring molecules 3-fold increase, read-out: AK-based Prestwick Library Screening Results: A. baumannii (increase in extracellular AK activity)): 1.2; fold induction at 50 µM (P. aeruginosa; planktonic P. aeruginosa, 384-well, cutoff for positive-scoring molecules 3-fold increase, read-out: AK-based Prestwick Library Screening Results: P. aeruginosa (increase in extracellular AK activity)): 1.1; fold induction at 50 µM (E. cloacae; planktonic E. cloacae, 384-well, cutoff for positive-scoring molecules 3-fold increase, read-out: AK-based Prestwick Library Screening Results: E. cloacae (increase in extracellular AK activity)): 1.4; fold induction at 50 µM (E. faecium; planktonic E. faecium, 384-well, cutoff for positive-scoring molecules 3-fold increase, read-out: AK-based Prestwick Library Screening Results: E. faecium (increase in extracellular AK activity)): 0.9; fold induction at 50 µM (E. coli; planktonic E. coli, 384-well, cutoff for positive-scoring molecules 3-fold increase, read-out: AK-based Prestwick Library Screening Results: E. coli (increase in extracellular AK activity)): 1.3; fold induction at 50 µM ([2]; planktonic S. aureus, 384-well, cutoff for positive-scoring molecules 3-fold increase, read-out: AK-based Prestwick Library Screening Results: S. aureus (increase in extracellular AK activity)): 0.8; fold induction at 50 µM (K. pneumoniae; planktonic K. pneumoniae, 384-well, cutoff for positive-scoring molecules 3-fold increase, read-out: AK-based Prestwick Library Screening Results: K. pneumoniae (increase in extracellular AK activity)): 0.9

Question: With `Cc1onc(-c2c(F)cccc2Cl)c1C(=O)N[C@@H]1C(=O)N2[C@@H]1SC(C)(C)[C@@H]2C(=O)O` [Flucloxacillin sodium] as the compound, how does the fold induction at 50 µM ([1]; planktonic A. baumannii, positive cutoff 3-fold increase, read-out: AK-based Prestwick library screening result, A. baumannii (fold increase in extracellular AK activity)) read?
Answer: 1.5

Question: And the fold induction at 50 µM (P. aeruginosa; planktonic P. aeruginosa, positive cutoff 3-fold increase, read-out: AK-based Prestwick library screening result, P. aeruginosa (fold increase in extracellular AK activity))?
Answer: 1.2

Question: What about the fold induction at 50 µM (E. cloacae; planktonic E. cloacae, positive cutoff 3-fold increase, read-out: AK-based Prestwick library screening result, E. cloacae (fold increase in extracellular AK activity)) of the same compound?
Answer: 1.3

Question: What about the fold induction at 50 µM (E. faecium; planktonic E. faecium, positive cutoff 3-fold increase, read-out: AK-based Prestwick library screening result, E. faecium (fold increase in extracellular AK activity)) of the same compound?
Answer: 1

Question: And the fold induction at 50 µM (E. coli; planktonic E. coli, positive cutoff 3-fold increase, read-out: AK-based Prestwick library screening result, E. coli (fold increase in extracellular AK activity))?
Answer: 1.3

Question: And the fold induction at 50 µM ([2]; planktonic S. aureus, positive cutoff 3-fold increase, read-out: AK-based Prestwick library screening result, S. aureus (fold increase in extracellular AK activity))?
Answer: 6.1

Question: And the fold induction at 50 µM (K. pneumoniae; planktonic K. pneumoniae, positive cutoff 3-fold increase, read-out: AK-based Prestwick library screening result, K. pneumoniae (fold increase in extracellular AK activity))?
Answer: 1.1

Question: Which fold induction at 50 µM [1, 10] does the source give for `O=C1CCC(N2C(=O)c3ccccc3C2=O)C(=O)N1` (stereo not drawn) [Thalidomide] here?
Answer: 0.9

Question: What about the fold induction at 50 µM (P. aeruginosa; [11]) of the same compound?
Answer: 0.9

Question: And the fold induction at 50 µM (E. cloacae; [12])?
Answer: 1.1

Question: And the fold induction at 50 µM (E. faecium; [13])?
Answer: 1

Question: What about the fold induction at 50 µM (E. coli; [14]) of the same compound?
Answer: 1

Question: What about the fold induction at 50 µM [2, 15] of the same compound?
Answer: 1

Question: What about the fold induction at 50 µM (K. pneumoniae; [16]) of the same compound?
Answer: 0.8

Question: Which results are given for `Cc1ccc(S(=O)(=O)NC(=O)NN2CCCCCC2)cc1` [Tolazamide]?
Answer: fold induction at 50 µM [1, 3]: 1.2; fold induction at 50 µM (P. aeruginosa; [4]): 1.4; fold induction at 50 µM (E. cloacae; [5]): 1.6; fold induction at 50 µM (E. faecium; [6]): 1; fold induction at 50 µM (E. coli; [7]): 1.5; fold induction at 50 µM [2, 8]: 1; fold induction at 50 µM (K. pneumoniae; [9]): 1.4

Question: How did the fold induction at 50 µM [1, 10] turn out when `CCc1nc(N)nc(N)c1-c1ccc(Cl)cc1` [Pyrimethamine] was run?
Answer: 2.5

Question: And the fold induction at 50 µM (P. aeruginosa; [11])?
Answer: 0.9

Question: What about the fold induction at 50 µM (E. cloacae; [12]) of the same compound?
Answer: 1.3

Question: And the fold induction at 50 µM (E. faecium; [13])?
Answer: 1

Question: And the fold induction at 50 µM (E. coli; [14])?
Answer: 1.4

Question: What about the fold induction at 50 µM [2, 15] of the same compound?
Answer: 0.7

Question: What about the fold induction at 50 µM (K. pneumoniae; [16]) of the same compound?
Answer: 0.7
